# Measured values as given in PMC8743659, “C1632 suppresses the migration and proliferation of non‐small‐cell lung cancer cells involving LIN28 and FGFR1 pathway” (Journal of Cellular and Molecular Medicine, 2021).
# Entries after “also recorded” stand apart in the source; their conditions may differ.
# Columns and labels:
# Format in all cases: cell-based, human
# [1] = system: matrix metalloproteinase-9 (MMP-9); experiment: Western blot of MMP-9; details: A549 and A549R cells, 5 days
# Description: (§1) The total cell protein was extracted and denaturized at 95°C for 10 min. Samples were separated in SDS‐PAGE gel, then transferred to a PVDF membrane. Then this membrane was blocked with 5% non‐fat milk (solved in TBST) for 2.5 h at room temperature. Blots were probed with relevant primary antibodies against FGFR1 (CST), p‐FGFR1 (CST), MAPK (CST), p‐MAPK (CST), FAK (CST), p‐FAK (CST), MMP‐9 (CST), LIN28B (CST), GAPDH (CST), and β‐actin (proteintech) overnight at 4°C, respectively. Then the lanes were detected with HRP‐conjugated secondary antibodies and visualized using WESTAR SUPERNOVA kit (CYANAGEN).
# FGFR1 = experiment: Western blot of FGFR1 signalling in NSCLC cells; details: A549 and A549R cells, C1632 5 days, dose-dependent
# Description: as §1, with “Then this membrane was blocked with 5% non‐fat milk (solved in TBST) for 2.5 h at room temperature.” left out, “([…]).” for “(CYANAGEN).”
# A549R cells [2] = experiment: Transwell migration and invasion assay; details: pretreated 5 days, 24 h
# Description: (§2) Transwell assay was carried out according to the manufacturer's instructions provided by Transwell Kit (Corning Costar). Briefly, cells were pretreated with indicated concentrations of C1632 for 5 days, then harvested and re‐seeded into insert (transwell permeable support) containing 100 μl serum‐free DMEM medium. The insert was placed into 24‐well plate containing 600 μl of DMEM medium extra added with 10% FBS. 24 h later, cells on the upper surface of the insert were removed with cotton‐tipped swabs. And cells on backside surface of the insert were fixed with 10% formalin, then stained with crystal violet. The insert was washed three times with ddH2O before it is subjected to Nikon Ti microscope observation. Additionally, these inserts were dissolved in 500 μl acetic acid (33%) separately, and the absorbance at 560 nm was detected by the spectrophotometer (DTX880, Beckman Coulter).
# A549 cells [3] = experiment: Transwell migration and invasion assay; details: A549, pretreated 5 days, 24 h
# Description: as §2
# A549R cells [4] = experiment: Scratch-wound healing assay; details: 60 mg/L, after 72 h, control 97%
# Description: (§3) The cells scratch‐wound assay was performed as previous reported.[38] The cells were seeded in a 6‐well plate and then cultured in DMEM medium containing indicated concentration of C1632 or 0.01% DMSO for 5 days. A denuded area was created across the diameter of dish by a yellow tip as the cell density up to 95%. Then cells were maintained in a serum‐free medium throughout the test. Phase‐contrast images were taken at the indicate time by Nikon Ti microscope and analysed with Axiovision Rel.4.8 software.
# A549 cells [5] = experiment: Scratch-wound healing assay; details: A549, 60 mg/L
# Description: as §3
# A549R cells [6] = experiment: Annexin V/PI apoptosis assay; details: A549R, 15, 30 or 60 mg/L, 5 days
# Description: (§4) Cells were seeded in 6 cm^2 dish with a density of 3.0 × 10^5 cells per dish and treated with C1632 with final concentration of 15, 30, and 60 mg/L or 0.01% DMSO for 5 days. Then the assay was performed following the protocol provided by the Annexin V/PI Apoptosis Kit (Sigma) and was assessed on a flow cytometer (BD FACSCalibur, BD Biosciences).
# A549 cells [7] = experiment: Annexin V/PI apoptosis assay; details: A549, 15, 30 or 60 mg/L, 5 days
# Description: as §4
# A549R cells [8] = experiment: Colony formation assay; details: A549R, 15, 30 and 60 mg/L, dose-dependent; stronger than in A549
# Description: (§5) First, cells were treated with indicated concentrations of C1632 or 0.01% DMSO for 5 days. Then these cells were separated into single cells that were directly used for cloning. During the process of cloning, C1632‐treated A549 or A549R cells were still maintained in DMEM plus 10% FBS medium containing the indicated concentration of C1632 (15, 30, and 60 mg/L), while the control group was cultured with 0.01% DMSO. Both culture media were changed for every 2 days until 10 days. The number of forming colonies in C1632 or 0.01% DMSO‐treated groups was counted and the images were taken.
# A549 cells [9] = experiment: Colony formation assay; details: A549, 15, 30 and 60 mg/L, dose-dependent
# Description: as §5
smiles,measurement,setting,value
CC(=O)N(C)c1cccc(-c2ccc3nnc(C)n3n2)c1 [C1632],expression of MMP-9,[1],efficiently decreased
same,expression of FGFR1 and FGFR1 phosphorylation,FGFR1,inhibited
same,phosphorylation of the downstream kinase MAPK,FGFR1,inhibited
same,Transwell migration compared with untreated cells,A549R cells [2],decreased migration
same,Transwell migration compared with untreated cells,A549 cells [3],decreased migration
same,scratch covered by migrated cells,A549R cells [4],60%
same,migration rate,A549 cells [5],significant decrease
same,apoptosis,A549R cells [6],limited effects; also recorded: did not significantly increase
same,apoptosis,A549 cells [7],induces apoptosis
same,formation of colony units,A549R cells [8],inhibited
same,formation of colony units,A549 cells [9],inhibited
